The record followed here is ChEMBL document CHEMBL3608283, “Pyrrolopyridine or Pyrazolopyridine Derivatives” (ACS Med Chem Lett, 2015).

The target of assay [1] is T1, Muscarinic acetylcholine receptor M1 (Rattus norvegicus, UniProt P08482).
T1 sequence (P08482 whole entry): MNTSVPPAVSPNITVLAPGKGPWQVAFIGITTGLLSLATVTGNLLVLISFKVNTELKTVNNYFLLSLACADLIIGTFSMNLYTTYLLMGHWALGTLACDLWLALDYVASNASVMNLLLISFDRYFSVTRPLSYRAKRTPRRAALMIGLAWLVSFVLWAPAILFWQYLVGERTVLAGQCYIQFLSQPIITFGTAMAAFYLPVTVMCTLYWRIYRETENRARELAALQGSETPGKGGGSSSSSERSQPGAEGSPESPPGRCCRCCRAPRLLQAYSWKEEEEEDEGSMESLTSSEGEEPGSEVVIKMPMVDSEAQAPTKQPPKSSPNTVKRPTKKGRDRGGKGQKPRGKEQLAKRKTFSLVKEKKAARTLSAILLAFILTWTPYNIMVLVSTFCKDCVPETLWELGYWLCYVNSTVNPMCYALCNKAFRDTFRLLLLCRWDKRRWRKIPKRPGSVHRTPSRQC
The assay can be described thus: Positive allosteric modulation of rat muscarinic M1 receptor expressed in CHO cells assessed as basal and acetylcholine-stimulated Ca2+ level by FLIPR assay. The format is functional, cell-based.

Assay [2] addresses T2, Muscarinic acetylcholine receptor M1 (Homo sapiens, UniProt P11229).
T2 sequence (P11229 whole entry): T1 sequence (P08482 whole entry) with V5A, S254T, S309P, K320R, G337A, V413I
The assay is described as follows: Positive allosteric modulation of human muscarinic M1 receptor expressed in CHO cells assessed as basal and acetylcholine-stimulated Ca2+ level by FLIPR assay. The format is functional, cell-based.

Substitutions are numbered along the chain they refer to.

One may read the EC50 as the concentration that produces a half-maximal response. For the compound `Cn1cc(-c2ccc(Cn3cc(C(=O)N[C@H]4CCOC[C@@H]4O)c4ncccc43)c(F)c2)cn1`, the EC50 in assay [1] was determined as 58.6 nM; in assay [2], 28.5 nM.
The corresponding values for `Cn1cc(-c2ccc(Cn3cc(C(=O)N[C@H]4CCOC[C@@]4(C)O)c4ncccc43)c(F)c2)cn1` are 63.2 nM and 47.9 nM.
Take `Cn1ncc2cc(Cn3cc(C(=O)N[C@H]4COCC[C@@H]4O)c4ncccc43)ccc21`: the EC50 is 162 nM in assay [1] and 71.5 nM in assay [2].
For the compound `Cn1cc(-c2ccc(Cn3cc(C(=O)N[C@H]4COCC[C@@H]4O)c4ncccc43)cc2)cn1`, the EC50 in assay [1] came out at 13.8 nM; in assay [2], 11.1 nM.
The corresponding values for `Cn1cc(-c2ccc(Cn3cc(C(=O)N[C@H]4COCC[C@@H]4O)c4ncccc43)cn2)cn1` are 71.1 nM and 34.8 nM.
As for `Cn1cc(-c2ccc(Cn3cc(C(=O)N[C@H]4COCC[C@@H]4O)c4ncccc43)cc2F)cn1`, the EC50 in assay [1] was determined as 18 nM; in assay [2], 15.5 nM.
`CNC(=O)c1ccc(Cn2cc(C(=O)N[C@H]3COCC[C@@H]3O)c3ncccc32)cc1`: the EC50 in assay [1] stood at 18 nM; in assay [2] it was 9.1 nM.
